{
  "source": "patent US9511073B2",
  "about": "“Aromatic amides and uses thereof” (TAXIS Pharmaceuticals, Inc., priority 2011, dated 2016)",
  "data": [
    {"test_system": "Staphylococcus aureus (Isolate ID ATCC 29213)", "test": "Bacterial assay: MIC by broth microdilution or agar dilution (CLSI), S. aureus ATCC 29213", "assay_type": "cell-based", "conditions": "S. aureus (ATCC29213)", "summary_of_the_method": "(§1)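 Activity is binned (A ≤0.25 μg/mL; B >0.25–1.0; C >1.0–16; D >16 μg/mL) from MICs determined per CLSI by broth microdilution or agar dilution, on S. aureus ATCC 29213 plus an FtsZ-G196A mutant strain.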", "values": [
      {"smiles": "NC(=O)c1c(F)ccc(OC(COC(=O)NCc2ccccn2)c2nc(-c3ccc(C(F)(F)F)cc3)c(Br)o2)c1F", "note": "(stereo not drawn) [Compound 165, 2-(5-bromo-4-(4-(trifluoromethyl)phenyl)oazol-2-yl)-2-(3-carbamoyl-2,4-difluorophenoxy)ethyl (pyridin-2-ylmethyl)carbamate]", "S. aureus MIC (μg/mL) Activity Range": "B (activity>0.25 μg/mL-1.0 μg/mL)"},
      {"smiles": "NC(=O)c1c(F)ccc(OC(CC(O)CO)c2nc(-c3ccc(C(F)(F)F)cc3)c(Br)o2)c1F", "note": "(stereo not drawn) [Compound 156, 3-(1-(5-bromo-4-(4-(trifluoromethyl)phenyl)oxazol-2-yl)-3,4-dihydroxybutoxy)-2,6-difluorobenzamide]", "S. aureus MIC (μg/mL) Activity Range": "C (activity>1.0 μg/mL-16 μg/mL)"}
    ]},
    {"test_system": "Staphylococcus aureus (Isolate ID ATCC 29213)", "test": "Bacterial assay: MIC by broth microdilution or agar dilution (CLSI), S. aureus ATCC 29213", "assay_type": "cell-based", "conditions": "Staphylococcus aureus, ATCC29213, read-out: S. aureus MIC (μg/mL) Activity Range, S. aureus (ATCC29213)", "summary_of_the_method": "as §1", "units": {"MIC": "µg/mL"}, "values": [
      {"smiles": "Cn1nccc1CNC(=O)OCC(Oc1ccc(F)c(C(N)=O)c1F)c1nc(-c2ccc(C(F)(F)F)cc2)c(Br)o1", "note": "(stereo not drawn) [Compound 194, 2-(5-bromo-4-(4-(trifluoromethyl)phenyl)oxazol-2-yl)-2-(3-carbamoyl-2,4-difluorophenoxy)ethyl ((1-methyl-1H-pyrazol-5-yl)methyl)carbamate]", "MIC": "< 0.25"},
      {"smiles": "Cc1nnc(CCC(Oc2ccc(F)c(C(N)=O)c2F)c2nc(-c3ccc(C(F)(F)F)cc3)c(Br)o2)o1", "note": "(stereo not drawn) [Compound 97, 3-(1-(5-bromo-4-(4-(trifluoromethyl)phenyl)oxazol-2-yl)-3-(5-methyl-1,3,4-oxadiazol-2-yl)propoxy)-2,6-difluorobenzamide]", "MIC": "1 to 16"},
      {"smiles": "CCC(Oc1ccc(F)c(C(N)=O)c1F)c1nc(CCO)oc1Br", "note": "(stereo not drawn) [Compound 122, 3-(1-(5-bromo-2-(2-hydroxyethyl)oxazol-4-yl)propoxy)-2,6-difluorobenzamide]", "MIC": "> 16"},
      {"smiles": "COc1ccc(-c2nc(C(CO)Oc3ccc(F)c(C(N)=O)c3F)oc2Br)cn1", "note": "(stereo not drawn) [Compound 230, 3-(1-(5-bromo-4-(6-methoxypyridin-3-yl)oxazol-2-yl)-2-hydroxyethoxy)-2,6-difluorobenzamide]", "MIC": "1 to 16"},
      {"smiles": "CN(CC(=O)OCC(Oc1ccc(F)c(C(N)=O)c1F)c1nc(-c2ccc(C(F)(F)F)cc2)c(Br)o1)C(=O)OC(C)(C)C", "note": "(stereo not drawn) [Compound 61, 2-(5-bromo-4-(4-(trifluoromethyl)phenyl)oxazol-2-yl)-2-(3-carbamoyl-2,4-difluorophenoxy)ethyl 2-((tert-butoxycarbonyl)(methyl)amino)acetate]", "MIC": "0.25 to 1"},
      {"smiles": "CN(CCNC(=O)OCC(Oc1ccc(F)c(C(N)=O)c1F)c1nc(-c2ccc(C(F)(F)F)cc2)c(Br)o1)C(=O)OC(C)(C)C", "note": "(stereo not drawn) [Compound 153, tert-butyl (2-(((2-(5-bromo-4-(4-(trifluoromethyl)phenyl)oxazol-2-yl)-2-(3-carbamoyl-2,4-difluorophenoxy)ethoxy)carbonyl)amino)ethyl)(methyl)carbamate]", "MIC": "0.25 to 1"},
      {"smiles": "CN(C)C(=O)CCC(Oc1ccc(F)c(C(N)=O)c1F)c1nc(-c2ccc(C(F)(F)F)cc2)c(Br)o1", "note": "(stereo not drawn) [Compound 94, 3-(1-(5-bromo-4-(4-(trifluoromethyl)phenyl)oxazol-2-yl)-4-(dimethylamino)-4-oxobutoxy)-2,6-difluorobenzamide]", "MIC": "< 0.25"},
      {"smiles": "COc1ccc(-c2nc(C(COC(C)=O)Oc3ccc(F)c(C(N)=O)c3F)oc2Br)cc1", "note": "(stereo not drawn) [Compound 111, 2-(5-bromo-4-(4-methoxyphenyl)oxazol-2-yl)-2-(3-carbamoyl-2,4-difluorophenoxy)ethyl acetate]", "MIC": "1 to 16"},
      {"smiles": "NC(=O)c1c(F)ccc(OC(COC(=O)CCC(=O)O)c2nc(-c3ccc(C(F)(F)F)cc3)c(Br)o2)c1F", "note": "(stereo not drawn) [Compound 74, 4-(2-(5-bromo-4-(4-(trifluoromethyl)phenyl)oxazol-2-yl)-2-(3-carbamoyl-2,4-difluorophenoxy)ethoxy)-4-oxobutanoic acid]", "MIC": "1 to 16"},
      {"smiles": "COc1ccc(-c2nc(C(CO)Oc3ccc(F)c(C(N)=O)c3F)oc2Br)c(F)c1", "note": "(stereo not drawn) [Compound 234, 3-(1-(5-bromo-4-(2-fluoro-4-methoxyphenyl)oxazol-2-yl)-2-hydroxyethoxy)-2,6-difluorobenzamide]", "MIC": "0.25 to 1"},
      {"smiles": "CCCc1oc(C(COC(C)=O)Oc2ccc(F)c(C(N)=O)c2F)nc1-c1ccc(C(F)(F)F)cc1", "note": "(stereo not drawn) [Compound 65, 2-(3-carbamoyl-2,4-difluorophenoxy)-2-(5-propyl-4-(4-(trifluoromethyl)phenyl)oxazol-2-yl)ethyl acetate]", "MIC": "1 to 16"},
      {"smiles": "NC(=O)c1c(F)ccc(OC(CO)c2nc(-c3ccc(Cl)c(F)c3)co2)c1F", "note": "(stereo not drawn) [Compound 222, 3-(1-(4-(4-chloro-3-fluorophenyl)oxazol-2-yl)-2-hydroxyethoxy)-2,6-difluorobenzamide]", "MIC": "> 16"},
      {"smiles": "CC(=O)NCC(Oc1ccc(F)c(C(N)=O)c1F)c1nc(-c2ccc(C(F)(F)F)cc2)c(Br)o1", "note": "(stereo not drawn) [Compound 283, 3-(2-acetamido-1-(5-bromo-4-(4-(trifluoromethyl)phenyl)oxazol-2-yl)ethoxy)-2,6-difluorobenzamide]", "MIC": "1 to 16"},
      {"smiles": "CCC(Oc1ccc(F)c(C(N)=O)c1F)c1nc(CCOC(C)=O)oc1Br", "note": "(stereo not drawn) [Compound 121, 2-(5-bromo-4-(1-(3-carbamoyl-2,4-difluorophenoxy)propyl)oxazol-2-yl)ethyl acetate]", "MIC": "> 16"},
      {"smiles": "NC(=O)c1c(F)ccc(OC(CO)c2nc(-c3cccc(O)c3)c(Br)o2)c1F", "note": "(stereo not drawn) [Compound 118, 3-(1-(5-bromo-4-(3-hydroxyphenyl)oxazol-2-yl)-2-hydroxyethoxy)-2,6-difluorobenzamide]", "MIC": "> 16"},
      {"smiles": "CN(C)CCC(Oc1ccc(F)c(C(N)=O)c1F)c1nc(-c2ccc(C(F)(F)F)cc2)c(Br)o1", "note": "(stereo not drawn) [Compound 98, 3-(1-(5-bromo-4-(4-(trifluoromethyl)phenyl)oxazol-2-yl)-3-(dimethylamino)propoxy)-2,6-difluorobenzamide]", "MIC": "1 to 16"},
      {"smiles": "COc1cc(CNC(=O)OCC(Oc2ccc(F)c(C(N)=O)c2F)c2nc(-c3ccc(C(F)(F)F)cc3)c(Br)o2)ccn1", "note": "(stereo not drawn) [Compound 209, 2-(5-bromo-4-(4-(trifluoromethyl)phenyl)oxazol-2-yl)-2-(3-carbamoyl-2,4-difluorophenoxy)ethyl ((2-methoxypyridin-4-yl)methyl)carbamate]", "MIC": "0.25 to 1"},
      {"smiles": "NC(=O)c1c(F)ccc(OC(CO)c2nc(-c3ccc(N4CCCC4)c(Br)c3)c(Br)o2)c1F", "note": "(stereo not drawn) [Compound 256, 3-(1-(5-bromo-4-(3-bromo-4-(pyrrolidin-1-yl)phenyl)oxazol-2-yl)-2-hydroxyethoxy)-2,6-difluorobenzamide]", "MIC": "1 to 16"},
      {"smiles": "C=CCC(Oc1ccc(F)c(C(N)=O)c1F)c1nc(-c2ccc(Cl)cc2)c(Br)o1", "note": "(stereo not drawn) [Compound 104, 3-((1-(5-bromo-4-(4-chlorophenyl)oxazol-2-yl)but-3-en-1-yl)oxy)-2,6-difluorobenzamide]", "MIC": "1 to 16"},
      {"smiles": "NC(=O)c1c(F)ccc(OC(C(=O)O)c2csc(-c3ccc(C(F)(F)F)cc3)n2)c1F", "note": "(stereo not drawn) [Compound 127, 2-(3-carbamoyl-2,4-difluorophenoxy)-2-(2-(4-(trifluoromethyl)phenyl)thiazol-4-yl)acetic acid]", "MIC": "> 16"},
      {"smiles": "CC(=O)OCC(Oc1ccc(F)c(C(N)=O)c1F)c1nc(-c2ccc(OC(F)(F)F)cc2)c(Br)o1", "note": "(stereo not drawn) [Compound 115, 2-(5-bromo-4-(4-(trifluoromethoxy)phenyl)oxazol-2-yl)-2-(3-carbamoyl-2,4-difluorophenoxy)ethyl acetate]", "MIC": "< 0.25"},
      {"smiles": "CN(CC(=O)OCC(Oc1ccc(F)c(C(N)=O)c1F)c1nc(-c2ccc(Cl)cc2)c(Cl)o1)C(=O)OC(C)(C)C", "note": "(stereo not drawn) [Compound 58, 2-(3-carbamoyl-2,4-difluorophenoxy)-2-(5-chloro-4-(4-chlorophenyl)oxazol-2-yl)ethyl 2-((tert-butoxycarbonyl)(methyl)amino)acetate]", "MIC": "1 to 16"},
      {"smiles": "CSc1oc(C(CO)Oc2ccc(F)c(C(N)=O)c2F)nc1-c1ccc(C(F)(F)F)cc1", "note": "(stereo not drawn) [Compound 271, 2,6-difluoro-3-(2-hydroxy-1-(5-(methylthio)-4-(4-(trifluoromethyl)phenyl)oxazol-2-yl)ethoxy)benzamide]", "MIC": "0.25 to 1"},
      {"smiles": "NC(=O)c1c(F)ccc(OC(CO)c2nc(-c3ccc(OC(F)(F)F)cc3)c(Br)o2)c1F", "note": "(stereo not drawn) [Compound 116, 3-(1-(5-bromo-4-(4-(trifluoromethoxy)phenyl)oxazol-2-yl)-2-hydroxyethoxy)-2,6-difluorobenzamide]", "MIC": "< 0.25"},
      {"smiles": "C=CCc1oc(C(CC)Oc2ccc(F)c(C(N)=O)c2F)nc1-c1ccc(Cl)cc1", "note": "(stereo not drawn) [Compound 22, 3-(1-(5-allyl-4-(4-chlorophenyl)oxazol-2-yl)propoxy)-2,6-difluorobenzamide]", "MIC": "1 to 16"},
      {"smiles": "CC(Oc1ccc(F)c(C(N)=O)c1F)c1nc(Br)cs1", "note": "(stereo not drawn) [Compound 2, 3-(1-(4-bromothiazol-2-yl)ethoxy)-2,6-difluorobenzamide]", "MIC": "1 to 16"},
      {"smiles": "NC(=O)c1c(F)ccc(OC(COC(=O)CN2C(=O)c3ccccc3C2=O)c2nc(-c3ccc(C(F)(F)F)cc3)c(Br)o2)c1F", "note": "(stereo not drawn) [Compound 60, 2-(5-bromo-4-(4-(trifluoromethyl)phenyl)oxazol-2-yl)-2-(3-carbamoyl-2,4-difluorophenoxy)ethyl 2-(1,3-dioxoisoindolin-2-yl)acetate]", "MIC": "0.25 to 1"},
      {"smiles": "CC(=O)OCC(Oc1ccc(F)c(C(N)=O)c1F)c1nc(-c2ccc(C(F)(F)F)cc2)sc1Br", "note": "(stereo not drawn) [Compound 130, 2-(5-bromo-2-(4-(trifluoromethyl)phenyl)thiazol-4-yl)-2-(3-carbamoyl-2,4-difluorophenoxy)ethyl acetate]", "MIC": "> 16"},
      {"smiles": "CC(=O)OCC(Oc1ccc(F)c(C(N)=O)c1F)c1nc(-c2ccc(Cl)cc2)c(Cl)o1", "note": "(stereo not drawn) [Compound 46, 2-(3-carbamoyl-2,4-difluorophenoxy)-2-(5-chloro-4-(4-chlorophenyl)oxazol-2-yl)ethyl acetate]", "MIC": "0.25 to 1"},
      {"smiles": "NC(=O)c1c(F)ccc(O[C@H](CO)c2nc(-c3ccc(C(F)(F)F)cc3)co2)c1F", "note": "[Compound 272B, (R)-2,6-difluoro-3-(2-hydroxy-1-(4-(4-(trifluoromethyl)phenyl)oxazol-2-yl)ethoxy)benzamide]", "MIC": "1 to 16"},
      {"smiles": "CCC(Oc1ccc(F)c(C(N)=O)c1F)c1nc(-c2ccc(Cl)cc2)c(Br)o1", "note": "(stereo not drawn) [Compound 18, 3-(1-(5-bromo-4-(4-chlorophenyl)oxazol-2-yl)propoxy)-2,6-difluorobenzamide]", "MIC": "1 to 16"}
    ]}
  ]
}
